# According to patent US20260315499A1, “2'- {HETEROCYCLYL (ARYL/ALKYL) METHYL} - CANNABIDIOL COMPOUNDS AND PROCESS FOR PREPARATION THEREOF” (COUNCIL OF SCIENTIFIC & INDUSTRIAL RESEARCH, priority 2023, published 2026):
# Experiments:
# [1] = Cell viability assay in macrophage RAW264.7 cells (MTT); type: cell-based; conditions: mouse, read-out: % cell viability ± SD; for viability at 24 h, 5 µM: RAW264.7, 5 μM; for viability at 24 h, 10 µM: RAW264.7, 10 μM
# Method: RAW264.7 cells were seeded in 96-well cell culture plates at a density of 1×10^4 cells per well and incubated overnight at 37° C. with 5% CO2. Next day, the cells were treated with CBD or its derivatives at 5 μM and/or 10 μM concentration for 24 hrs. The MTT dye (2.5 mg/ml, 20 μL) was added to each well 4 hrs before termination (Molecules. 2022, 27, 8068). After 4 hrs of incubation with MTT, the supernatant was discarded, and the formazan crystals were dissolved by adding 100 μL DMSO. The absorbance was recorded at 540 nm on microplate reader (Tecan Infinite Pro).
# [2] = tested on: nitric oxide (NO) production in RAW264.7 macrophages; test: In vitro anti-inflammatory activity: nitric oxide production (Griess) in LPS-exposed RAW264.7 macrophages; type: cell-based, mouse; conditions: for inhibition at 5 µM / inhibition at 10 µM: Mus musculus, RAW264.7, read-out: % NO Inhibition ± SD; for inhibition at 5 µM / inhibition at 10 µM / % NO inhibition: LPS 24 hrs; for % NO inhibition: concentration not given
# Method: Measurement of Nitric oxide: RAW264.7 macrophages were seeded in 96-well plates with a density of 0.5×10^5 cells/well and incubated overnight at 37° C. in a 5% CO2 atmosphere. The cells were treated with different concentration of CBD and its analogues and exposed to LPS for 24 hrs. For nitric oxide (NO) determination, the cell culture supernatant was taken and mixed with equal volume of Griess reagent in another 96 well plate at room temperature (Biomed Pharmacother., 2017, 92, 175-186). The absorbance was measured at 540 nm. The final calculations were determined on a NaNO2 standard curve.
# [3] = Cell viability assay in differentiated neuronal cells (MTT), SHSY5Y; type: cell-based; conditions: human, read-out: % Cell viability ± SD, SHSY5Y
# Description: (§1) In the present disclosure outlined herein, a focused library of cannabidiol analogues were studied for possible neuro-protective potential employing cell line-based stress model systems which mimic the biological stress conditions in vitro (J Cell Biochem., 2018, 119(8), 6482-6491).
# (§2) Human neuroblastoma cells (SHSY5Y) and mouse neuroblastoma cells (N2A) were procured from American Type Culture Collection (ATCC). SHSY5Y cell cultures were maintained in DMEM F12 (Invitrogen) whereas N2A were cultured in DMEM (Invitrogen) with 10% Fetal Bovine Serum (Gibco) medium, subjected to differentiation to acquire neuronal morphology (employing differentiation media DMEM-F12, 3-5% FBS, (For differentiation, low concentration of FBS was used) and 50 μM retinoic acid). Differentiated cells were later seeded into 96 well plates, at a density of 1×10^4 before being incubated for 48 hrs with the synthesized library. The exhausted culture media was substituted with new culture media containing 0.5 mg/ml MTT dye. Eventually, the OD at 490 nm excitation was measured using a 96-well plate reader. The proportion of viable cells was determined as percentage of absorbance of untreated cultures relative to control.
# [4] = Cell viability assay in differentiated neuronal cells (MTT), N2A; type: cell-based; conditions: mouse, read-out: % Cell viability ± SD, N2A
# Description: as §1, §2
Compound,"viability at 24 h, 5 µM [1] [%]","viability at 24 h, 10 µM [1] [%]",inhibition at 5 µM [2] [%],inhibition at 10 µM [2] [%],% NO inhibition [2],"viability at 48 h, 20 µM [3] [%]","viability at 48 h, 20 µM [4] [%]",% NO Inhibition ± SD ([2]; LPS alone 1 μg/ml (0% reference)) [%]
"C=C(C)[C@@H]1CCC(C)=C[C@H]1c1c(O)c(CN2CCOCC2)c(CCCCC)c(CN2CCOCC2)c1O [A1′, 2′,4′-{bis-(morpholin-1-ylmethyl)}-cannabidiol]",94.4 ± 0.9,92.4 ± 1.2,15.6 ± 2.5,23.4 ± 3.8,greater than 20%,93.6 ± 2.01,94.7 ± 1.86,
"C=C(C)[C@@H]1CCC(C)=C[C@H]1c1c(O)cc(CCCCC)c(CN2CCN(C(C)=O)CC2)c1O [A11, 2′-[{4-(piperazin-1-yl)ethan-1-one}methyl]-cannabidiol]",93.3 ± 0.4,91.6 ± 0.2,15.6 ± 1.7,31.4 ± 3.6,more than 25%,101 ± 3.48,102 ± 1.53,
"Lipopolysaccharide [LPS, reference compound]",,,,,,,,0
"C=C(C)[C@@H]1CCC(C)=C[C@H]1c1c(O)cc(CCCCC)c(CN2CCN(c3ncccn3)CC2)c1O [A15, 2′-[{4-(pyrimidin-2-yl)piperazin-1-yl}methyl]-cannabidiol]",93.4 ± 1.1,89.9 ± 0.9,4.8 ± 0.02,14.5 ± 0.6,,81.8 ± 1.17,85.2 ± 1.25,
"C=C(C)[C@@H]1CCC(C)=C[C@H]1c1c(O)cc(CCCCC)c(CN2CCN(c3ccc(Cl)cc3)CC2)c1O [A14, 2′-[{4-(4-chlorophenyl)piperazine}methyl]-cannabidiol]",95.2 ± 0.7,89.8 ± 1.1,8.5 ± 1.7,14.2 ± 3.8,,90.5 ± 0.14,95.9 ± 4.04,
"C=C(C)[C@@H]1CCC(C)=C[C@H]1c1c(O)cc(CCCCC)c(CN2CCN(C3CC3)CC2)c1O [A13, 2′-{(4-cyclopropylpiperazin-1-yl)methyl}-cannabidiol]",89.3 ± 2,93.9 ± 4.3,12 ± 1.7,27.3 ± 2.6,more than 25%,96.2 ± 4.87,97.2 ± 3.51,
"C=C(C)[C@@H]1CCC(C)=C[C@H]1c1c(O)cc(CCCCC)c(CN2CCN(CCO)CC2)c1O [A10, 2′-[{4-(2-hydroxyethyl)piperazin-1-yl}methyl]-cannabidiol]",97.5 ± 1.7,95 ± 2.6,48.9,68.3,,98.1 ± 2.25,96 ± 2.17,
"C=C(C)[C@@H]1CCC(C)=C[C@H]1c1c(O)cc(CCCCC)c(CN2CCC(C(F)(F)F)CC2)c1O [A6, 2′-[{4-(trifluoromethyl)piperidin-1-yl}methyl]-cannabidiol]",94.1 ± 1.8,92 ± 1.1,7.6 ± 3,11.8 ± 1.9,,27 ± 2.02,25.3 ± 1.47,
"C=C(C)[C@@H]1CCC(C)=C[C@H]1c1c(O)cc(CCCCC)c(CN2CCN(CC)CC2)c1O [A9, 2′-{(4-ethylpiperazin-1-yl)methyl}-cannabidiol]",94.2 ± 2.1,87.6 ± 0.1,14.6 ± 3.3,27.9 ± 0.4,more than 25%,91.67 ± 0.56,94.3 ± 1.3,
